Earlier results in patent EP0324210A1 (UOP, priority 1988, dated 1989).

Conditions: aqueous solution, 25°C

- acid dissociation constant pKa₃: 5.40
Structure (SMILES): O=C(O)CC(O)(CC(=O)O)C(=O)O [citric acid]
